Counter-ions that a name gives are not always drawn.
Target: T1, F876L mutant Androgen Receptor (AR-F876L) (Homo sapiens, UniProt P10275, F877L)
T1 construct: expressed in transfected cells; host or cells: LNCaP
T1 sequence (P10275 1-920 F877L): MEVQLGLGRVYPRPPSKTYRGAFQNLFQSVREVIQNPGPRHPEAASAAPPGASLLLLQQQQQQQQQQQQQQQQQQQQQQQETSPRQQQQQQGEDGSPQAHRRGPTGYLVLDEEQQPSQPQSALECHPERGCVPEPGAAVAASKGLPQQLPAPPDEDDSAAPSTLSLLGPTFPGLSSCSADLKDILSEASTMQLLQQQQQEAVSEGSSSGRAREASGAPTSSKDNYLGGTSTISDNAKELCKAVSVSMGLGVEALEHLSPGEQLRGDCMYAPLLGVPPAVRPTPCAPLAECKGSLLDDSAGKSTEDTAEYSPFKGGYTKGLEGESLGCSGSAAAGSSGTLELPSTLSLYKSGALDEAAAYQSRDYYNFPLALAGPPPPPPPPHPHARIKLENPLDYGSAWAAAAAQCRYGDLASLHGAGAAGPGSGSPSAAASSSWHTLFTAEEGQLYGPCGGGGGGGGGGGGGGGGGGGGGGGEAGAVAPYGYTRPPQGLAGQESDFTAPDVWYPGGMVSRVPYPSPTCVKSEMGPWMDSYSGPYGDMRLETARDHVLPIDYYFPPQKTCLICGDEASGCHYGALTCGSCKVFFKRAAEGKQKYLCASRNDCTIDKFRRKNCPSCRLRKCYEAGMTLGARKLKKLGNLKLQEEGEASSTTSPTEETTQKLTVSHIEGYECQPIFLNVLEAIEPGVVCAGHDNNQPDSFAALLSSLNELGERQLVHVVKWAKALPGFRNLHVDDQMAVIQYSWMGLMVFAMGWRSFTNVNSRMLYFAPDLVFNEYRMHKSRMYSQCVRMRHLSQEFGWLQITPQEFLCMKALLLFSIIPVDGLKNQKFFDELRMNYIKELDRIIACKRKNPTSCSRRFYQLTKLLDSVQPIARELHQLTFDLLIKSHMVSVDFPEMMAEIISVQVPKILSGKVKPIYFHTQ
Assay: AR reporter assay, LNCaP-AR-F876L AG (agonist mode)
Format: cell-based
Settings: for Emax: read-out: LNCaP-AR-F876L AG MAX % Stim
Excerpt: LNCaP AR (cs) and LNCaP F876L luciferase cell lines were generated by transduction of each cell line (description of cell line generation Joseph J D, Lu N, Qian J, Sensintaffar J, Shao G, Brigham D, Moon M, Maneval E C, Chen I, Darimont B, Hager J H. A clinically relevant androgen receptor mutation confers resistance to second-generation antiandrogens enzalutamide and ARN-509. Cancer Discov 2013; 3:1020-1029) with an Androgen Response Element Firefly Luciferase lentiviral construct at an MOI (multiplicity of infection) of 50 following the manufacturer's instructions (Qiagen). A stable pooled-population cell line was generated using puromycin (Life Technologies) selection at 1:10,000 v/v. The protocol below was used for both cell lines and for testing of the compounds of Formula (I) of the present invention.
LNCaP cells were grown to about 80% confluence, media removed and cells rinsed in Hank's balanced salt solution prior to separation from the plate with 0.05% Trypsin EDTA. Cells were lifted and trypsin negated in complete CSS (charcoal stripped serum) culture media. CSS was maintained on cells for 24 h prior to assay, at which time 5,000 cells/[…] were seeded in Greiner 384 well White/White Tissue Culture Treated Plates and incubated for a further 1-2 hours at 37° C., 5% CO2, prior to addition of 10 μL of 4× Test Compounds (compounds described herein) or Assay Controls (all diluted in complete media containing 10% css). A further 10 μL of 4× R-1881 Agonist Challenge (antagonist assay) or Buffer (agonist assay) was then added (all diluted in complete media containing 10% css). Agonist challenge was at 400 pM for WT assay and 600 pM for F876L assay. Plates containing cells and compounds herein were incubated for a further 20-24 hours at 37° C., 5% CO2 before addition of 40 μL/well of Steady-Glo Luciferase Assay System Reagent (Promega#E2520). After 1 h, plates were read for luminescence on a BMG Pherastar.
((Sample RLU−Ave Low Control RLU[DMSO/Buffer])/(Ave High Control RLU [1 μM R-1881]—Ave Low Control RLU[DMSO/Buffer]))*100.
EC/IC50 calculations were achieved utilizing calculated RLU data and data fitting macros. Data were fit using least-squares methods to the following formula: […]
As used herein: • pIC50 is defined as −Log10(IC50 expressed in [Molar]). • pEC50 is defined as −Log10(EC50 expressed in [Molar]). • MAX % Inh is defined as the maximum % inhibition of R1881 control response observed for a compound over the tested concentration range. • MAX % Stim is defined as the maximum % stimulation (agonist response) observed for a compound over the tested concentration range. • LNCaP-AR-wt ANT refers to the reporter assay using LNCaP cells stably transfected with the Androgen Response Element Firefly Luciferase lentiviral construct and wild-type Androgen Receptor (AR-wt) in Antagonist mode. • LNCaP-AR-wt AG refers to the reporter assay using LNCaP cells stably transfected with the Androgen Response Element Firefly Luciferase lentiviral construct and wild-type Androgen Receptor (AR-wt) in Agonist mode. • LNCaP-AR-F876L ANT refers to the reporter assay using LNCaP cells stably transfected with the Androgen Response Element Firefly Luciferase lentiviral construct and F876L mutant Androgen Receptor (AR-F876L) in Antagonist mode. • LNCaP-AR-F876L AG refers to the reporter assay using LNCaP cells stably transfected with the Androgen Response Element Firefly Luciferase lentiviral construct and F876L mutant Androgen Receptor (AR-F876L) in Agonist mode.

CC1(C)C(=O)N(c2ccc(C#N)c(C(F)(F)F)c2)C(=S)N1c1ccc(OC2CCNCC2)cc1 [Compound 1, 4-(4,4-Dimethyl-5-oxo-3-(4-(piperidin-4-yloxy)phenyl)-2-thioxoimidazolidin-1-yl)-2-(trifluoromethyl)benzonitrile]
EC50: > 15.1 µM | Emax: -0.1%

CN1CCC(Oc2ccc(N3C(=S)N(c4ccc(C#N)c(C(F)(F)F)c4)C(=O)C3(C)C)cc2)CC1 [Compound 2, 4-(4,4-Dimethyl-3-(4-((1-methylpiperidin-4-yl)oxy)phenyl)-5-oxo-2-thioxoimidazolidin-1-yl)-2-(trifluoromethyl)benzonitrile hydrochloride]
EC50: > 15.1 µM | Emax: 0.1%

CC1(C)C(=O)N(c2ccc(C#N)c(C(F)(F)F)c2)C(=S)N1c1ccc(OC2CCNCC2)nc1 [Compound 3, 4-(4,4-Dimethyl-5-oxo-3-(6-(piperidin-4-yloxy)pyridin-3-yl)-2-thioxoimidazolidin-1-yl)-2-(trifluoromethyl)benzonitrile hydrochloride]
EC50: > 15.1 µM | Emax: 0.3%

CN1CCC(Oc2ccc(N3C(=S)N(c4ccc(C#N)c(C(F)(F)F)c4)C(=O)C3(C)C)cn2)CC1 [Compound 4, 4-(4,4-Dimethyl-3-(6-((1-methylpiperidin-4-yl)oxy)pyridin-3-yl)-5-oxo-2-thioxoimidazolidin-1-yl)-2-(trifluoromethyl)benzonitrile hydrochloride]
EC50: > 15.1 µM | Emax: 0.1%

CC1(C)C(=O)N(c2ccc(C#N)c(C(F)(F)F)c2)C(=S)N1c1cnc(OC2CCNCC2)nc1 [Compound 5, 4-(4,4-Dimethyl-5-oxo-3-(2-(piperidin-4-yloxy)pyrimidin-5-yl)-2-thioxoimidazolidin-1-yl)-2-(trifluoromethyl)benzonitrile]
EC50: > 15.1 µM | Emax: 0%

CN1CCC(Oc2ncc(N3C(=S)N(c4ccc(C#N)c(C(F)(F)F)c4)C(=O)C3(C)C)cn2)CC1 [Compound 6, 4-(4,4-Dimethyl-3-(2-((1-methylpiperidin-4-yl)oxy)pyrimidin-5-yl)-5-oxo-2-thioxoimidazolidin-1-yl)-2-(trifluoromethyl)benzonitrile]
EC50: > 15.1 µM | Emax: -0.1%

CC1(C)C(=O)N(c2ccc(C#N)c(Cl)c2)C(=S)N1c1ccc(OC2CCNCC2)cc1 [Compound 7, 2-Chloro-4-(4,4-dimethyl-5-oxo-3-(4-(piperidin-4-yloxy)phenyl)-2-thioxoimidazolidin-1-yl)benzonitrile hydrochloride]
EC50: > 15.1 µM | Emax: -0.1%

CN1CCC(Oc2ccc(N3C(=S)N(c4ccc(C#N)c(Cl)c4)C(=O)C3(C)C)cc2)CC1 [Compound 8, 2-Chloro-4-(4,4-dimethyl-3-(4-((1-methylpiperidin-4-yl)oxy)phenyl)-5-oxo-2-thioxoimidazolidin-1-yl)benzonitrile hydrochloride]
EC50: > 15.1 µM | Emax: 0.1%

CC1(C)C(=O)N(c2ccc(C#N)c(Cl)c2)C(=S)N1c1ccc(OC2CCNCC2)nc1 [Compound 9, 2-Chloro-4-(4,4-dimethyl-5-oxo-3-(6-(piperidin-4-yloxy)pyridin-3-yl)-2-thioxoimidazolidin-1-yl)benzonitrile hydrochloride]
EC50: > 15.1 µM | Emax: 0%

CN1CCC(Oc2ccc(N3C(=S)N(c4ccc(C#N)c(Cl)c4)C(=O)C3(C)C)cn2)CC1 [Compound 10, 2-Chloro-4-(4,4-dimethyl-3-(6-((1-methylpiperidin-4-yl)oxy)pyridin-3-yl)-5-oxo-2-thioxoimidazolidin-1-yl)benzonitrile hydrochloride]
EC50: > 15.1 µM | Emax: 0.1%

N#Cc1ccc(N2C(=O)C3(CCC3)N(c3ccc(OC4CCNCC4)cc3)C2=S)cc1C(F)(F)F [Compound 11, 4-(8-Oxo-5-(4-(piperidin-4-yloxy)phenyl)-6-thioxo-5,7-diazaspiro[3.4]octan-7-yl)-2-(trifluoromethyl)benzonitrile]
EC50: > 15.1 µM | Emax: 0.1%

Source: patent US20190337924A1, “SUBSTITUTED HYDANTOIN AND THIOHYDANTOIN DERIVATIVES AS ANDROGEN RECEPTOR ANTAGONISTS” (Janssen Pharmaceutica NV, priority 2016, published 2019)
